Reference: patent EP3046573B1, “AMYLIN ANALOGUES” (Zealand Pharma A/S, priority 2013, dated 2015)
Like-named read-outs stand apart in the source and are kept apart here. Numbered stars: 1 amine (or outer) side, 2 acyl side, 3 side chain; on linkers, the order of the positions; unused ones are H or OH. Bridge positions count the residues as written; N and C are the ends. Square brackets hold non-standard residues; d marks the D form. Peptide text beside a SMILES is read from it. * marks the point of attachment. Pro(trans-4-Ph) = O=C(O)[C@@H]1C[C@@H](c2ccccc2)CN1; C20 diacid = O=C(O)CCCCCCCCCCCCCCCCCCC(=O)*; γGlu = O=C(O)[C@H](CCC(=O)[*:2])N[*:1]; NMeI = CC[C@H](C)[C@H](NC)C(=O)O; Sar = CNCC(=O)O

Key:
[1] = molecular target: T1, human amylin receptor 3 (hAMYR3) consisting of hCTR2 co-expressed with human Receptor Activity Modifying Protein 3 (hRAMP3) (Homo sapiens, UniProt O60896+P30988); assay: hAMYR3 assay: induction of cAMP (AlphaScreen cAMP Assay kit) in COS7 cells expressing hAMYR3; assay type: cell-based
T1 construct: expressed in transfected cells
T1 sequence (P30988 25-474): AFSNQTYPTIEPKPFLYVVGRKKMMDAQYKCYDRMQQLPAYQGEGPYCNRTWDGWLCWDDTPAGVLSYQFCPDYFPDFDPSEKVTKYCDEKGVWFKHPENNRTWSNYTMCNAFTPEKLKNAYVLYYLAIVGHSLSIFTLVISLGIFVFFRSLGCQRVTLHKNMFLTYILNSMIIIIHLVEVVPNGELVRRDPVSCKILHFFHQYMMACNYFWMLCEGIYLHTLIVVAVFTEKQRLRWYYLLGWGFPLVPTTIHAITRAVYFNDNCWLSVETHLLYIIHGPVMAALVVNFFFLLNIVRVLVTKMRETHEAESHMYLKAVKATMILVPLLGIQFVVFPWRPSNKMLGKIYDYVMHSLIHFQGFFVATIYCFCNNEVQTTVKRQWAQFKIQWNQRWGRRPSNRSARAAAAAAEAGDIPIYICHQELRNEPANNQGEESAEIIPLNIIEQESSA
T1 sequence (O60896 24-148 partner): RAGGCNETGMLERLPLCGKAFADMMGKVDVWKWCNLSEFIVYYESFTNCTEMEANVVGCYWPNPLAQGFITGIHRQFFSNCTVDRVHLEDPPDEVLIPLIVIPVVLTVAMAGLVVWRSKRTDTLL
From the text: The cell line COS7, originating from African Green Monkey kidney fibroblast cells, was used for establishment of the stable cell lines described below. The COS7 cellular background was used due to it being RAMP naive, and as such it provides the best available system for testing of the monomeric hCTR and different heterodimeric amylin receptor subtypes functionally generated by introduction of the individual RAMPs.
A cell line expressing the human amylin receptor 3 (hAMYR3) was generated in the COS7 cellular background as stable clones. In brief, hCTR2 (GI:4502547) and hRAMP3 (GI:118572586) were amplified by PCR using primers encoding terminal restriction sites for subcloning. The 5'-end primers additionally encoded a near Kozak consensus sequence to ensure efficient translation. The fidelity of the DNA encoding the receptor was confirmed by DNA sequencing. The PCR products encoding the receptor were subcloned into a proprietary tri-cistronic mammalian expression vector with RAMP3, hCTR2 and neomycin (G418) resistance marker. The mammalian expression vector encoding the receptor was transfected into COS7 cells by a standard liposome transfection method. 48 hours post-transfection, cells were seeded for limited dilution cloning and selected with 1 mg/ml G418 in the culture medium. After 3 weeks, surviving colonies of hAMY3R-expressing cells were picked, propagated and tested in the amylin efficacy assay as described in Example 3 below. The functional generation of the amylin receptor phenotype was verified in the efficacy assay by a left-shifted efficacy response to amylin relative to monomeric calcitonin receptor, and one hAMYR3-expressing clone was chosen for compound profiling.
In vitro activity of test peptides at the hCTR2 and hAMYR3 receptors was assessed by measuring the induction of cAMP following stimulation of the receptor by pramlintide or peptides of the invention using the AlphaScreen® cAMP Assay kit from Perkin-Elmer.
Briefly, COS7 cells expressing hCTR2 (see Example 2, above) were seeded at 30-40,000 cells per well in 96-well microtiter plates coated with 0.01 % poly-L-lysine, and grown for 1 day in culture in 100 µl growth medium [DMEM, 10% FCS, Penicillin (100 IU/ml), Streptomycin (100 µg/ml)]. On the day of analysis, growth medium was removed and the cells were washed once with 200 µl Tyrode buffer [Tyrode's Salts (9.6 g/l), 10 mM HEPES, pH 7.4]. Cells were incubated in 100 µl Tyrode buffer containing increasing concentrations of test peptides, 100 µM IBMX and 0.1% casein for 15 min at 37° C. The reaction was stopped by carefully decanting off the compound/buffer medium and replacing it with lysis/detection buffer (80 µl 0.1 % w/v BSA, 5 mM HEPES, 0.3 % v/v Tween-20 in deionized water). After incubation at room temperature for 10 min., the cAMP content of the resulting cell lysate was estimated according to the AlphaScreen® cAMP Assay manufacturer's instructions. EC50 values and relative efficacy values (in %) compared to reference peptide (Pramlintide) were estimated by computer-aided curve fitting using the 4-parameter logistic (4PL) non-linear model.
The in vitro activity results (expressed as EC50 values) for peptides of the invention and for Pramlintide (reference peptide) are summarized in Table 2, below.

[2] = molecular target: T2, human calcitonin receptor (hCTR2) (Homo sapiens, UniProt P30988); assay: hCTR2 assay: induction of cAMP (AlphaScreen cAMP Assay kit) in COS7 cells expressing hCTR2; assay type: cell-based
T2 construct: expressed in transfected cells
T2 sequence (P30988 25-474): T1 sequence (P30988 25-474)
Outline: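 Functional agonism is measured as cAMP accumulation in a COS7 line stably transfected with hCTR2, lacking endogenous RAMPs. Peptides act for 15 min at 37° C with IBMX present, and curves are fitted with a 4-parameter logistic model.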

[3] = cAMP induction in COS7 cells expressing hAMYR3, average of a minimum of 3 determinations, read-out: hAMY R3 EC50
[4] = cAMP induction in COS7 cells expressing hCTR2, average of a minimum of 3 determinations, read-out: hCTR2 EC50

EC50 [1, 3] [nM]	EC50 [2, 4] [nM]	Compound	EC50 [1] [nM]	EC50 [2] [nM]
0.19	0.17	CC[C@H](C)[C@@H](C(=O)N[C@@H](CC(C)C)C(=O)N[C@@H](CO)C(=O)N[C@@H](CO)C(=O)N[C@H](C(=O)N[C@@H](CC(N)=O)C(=O)N[C@H](C(=O)NCC(=O)N[C@@H](CO)C(=O)N[C@@H](CC(N)=O)C(=O)N[C@H](C(=O)N1C[C@H](c2ccccc2)C[C@H]1C(N)=O)[C@@H](C)O)C(C)C)[C@@H](C)O)N(C)C(=O)CN(C)C(=O)[C@H](Cc1ccccc1)NC(=O)[C@H](CC(N)=O)NC(=O)[C@H](CC(N)=O)NC(=O)[C@H](CO)NC(=O)[C@H](CO)NC(=O)[C@H](CCCNC(=N)N)NC(=O)[C@H](Cc1c[nH]cn1)NC(=O)[C@H](CC(C)C)NC(=O)[C@H](Cc1ccccc1)NC(=O)[C@H](CCC(=O)O)NC(=O)[C@H](C)NC(=O)[C@H](CC(C)C)NC(=O)[C@H](CCCNC(=N)N)NC(=O)[C@H](CCC(N)=O)NC(=O)[C@@H](NC(=O)[C@H](C)NC(=O)[C@@H]1CSSC[C@H](NC(=O)[C@H](CCCNC(=N)N)NC(=O)CC[C@H](NC(=O)CCCCCCCCCCCCCCCCCCC(=O)O)C(=O)O)C(=O)N[C@@H](CC(N)=O)C(=O)N[C@@H]([C@@H](C)O)C(=O)N[C@@H](C)C(=O)N[C@@H]([C@@H](C)O)C(=O)N1)[C@@H](C)O [Compound 113, [19CD]-isoGlu-RC()NTATC()ATQRLAEFLHRSSNNF-Gly(Me)-Ile(Me)-LSSTNVGSNT-Php-NH2] ({C20 diacid-γGlu}-RCNTATCATQRLAEFLHRSSNNF[Sar][NMeI]LSSTNVGSNT[Pro(trans-4-Ph)]-NH2; disulfide 2-7)		
		CC[C@H](C)[C@@H](C(=O)N[C@@H](CC(C)C)C(=O)N[C@@H](CO)C(=O)N[C@@H](CO)C(=O)N[C@H](C(=O)N[C@@H](CC(N)=O)C(=O)N[C@H](C(=O)NCC(=O)N[C@@H](CO)C(=O)N[C@@H](CC(N)=O)C(=O)N[C@H](C(=O)N[C@@H](CO)C(N)=O)[C@@H](C)O)C(C)C)[C@@H](C)O)N(C)C(=O)[C@H](C)NC(=O)CN(C)C(=O)[C@H](Cc1ccccc1)NC(=O)[C@H](CC(N)=O)NC(=O)[C@H](CC(N)=O)NC(=O)[C@H](CO)NC(=O)[C@H](CO)NC(=O)[C@H](CCCNC(=N)N)NC(=O)[C@H](Cc1c[nH]cn1)NC(=O)[C@H](CC(C)C)NC(=O)[C@H](Cc1ccccc1)NC(=O)[C@H](CCC(=O)O)NC(=O)[C@H](C)NC(=O)[C@H](CC(C)C)NC(=O)[C@H](CCCNC(=N)N)NC(=O)[C@H](CCC(N)=O)NC(=O)[C@@H](NC(=O)[C@H](C)NC(=O)[C@@H]1CSSC[C@H](NC(=O)[C@H](CCCNC(=N)N)NC(=O)CC[C@H](NC(=O)CCCCCCCCCCCCCCCCCCC(=O)O)C(=O)O)C(=O)N[C@@H](CC(N)=O)C(=O)N[C@@H]([C@@H](C)O)C(=O)N[C@@H](C)C(=O)N[C@@H]([C@@H](C)O)C(=O)N1)[C@@H](C)O [Compound 116, [19CD]-isoGlu-RC()NTATC()ATQRLAEFLHRSSNNF-Gly(Me)-A-Ile(Me)-LSSTNVGSNTS-NH2] ({C20 diacid-γGlu}-RCNTATCATQRLAEFLHRSSNNF[Sar]A[NMeI]LSSTNVGSNTS-NH2; disulfide 2-7)	1.6	0.93
		CC[C@H](C)[C@@H](C(=O)N[C@@H](CC(C)C)C(=O)N[C@@H](CO)C(=O)N[C@@H](CO)C(=O)N[C@H](C(=O)N[C@@H](CC(N)=O)C(=O)N[C@H](C(=O)NCC(=O)N[C@@H](CO)C(=O)N[C@@H](CC(N)=O)C(=O)N[C@H](C(=O)N[C@H](C(N)=O)[C@@H](C)O)[C@@H](C)O)C(C)C)[C@@H](C)O)N(C)C(=O)[C@H](C)NC(=O)CN(C)C(=O)[C@H](Cc1ccccc1)NC(=O)[C@H](CC(N)=O)NC(=O)[C@H](CC(N)=O)NC(=O)[C@H](CO)NC(=O)[C@H](CO)NC(=O)[C@H](CCCNC(=N)N)NC(=O)[C@H](Cc1c[nH]cn1)NC(=O)[C@H](CC(C)C)NC(=O)[C@H](Cc1ccccc1)NC(=O)[C@H](CCC(=O)O)NC(=O)[C@H](C)NC(=O)[C@H](CC(C)C)NC(=O)[C@H](CCCNC(=N)N)NC(=O)[C@H](CCC(N)=O)NC(=O)[C@@H](NC(=O)[C@H](C)NC(=O)[C@@H]1CSSC[C@H](NC(=O)[C@H](CCCNC(=N)N)NC(=O)CC[C@H](NC(=O)CCCCCCCCCCCCCCCCCCC(=O)O)C(=O)O)C(=O)N[C@@H](CC(N)=O)C(=O)N[C@@H]([C@@H](C)O)C(=O)N[C@@H](C)C(=O)N[C@@H]([C@@H](C)O)C(=O)N1)[C@@H](C)O [Compound 117, [19CD]-isoGlu-RC()NTATC()ATQRLAEFLHRSSNNF-Gly(Me)-A-Ile(Me)-LSSTNVGSNTT-NH2] ({C20 diacid-γGlu}-RCNTATCATQRLAEFLHRSSNNF[Sar]A[NMeI]LSSTNVGSNTT-NH2; disulfide 2-7)	8.2	0.47
0.45	0.28	CC[C@H](C)[C@@H](C(=O)N[C@@H](CC(C)C)C(=O)N[C@@H](CO)C(=O)N[C@@H](CO)C(=O)N[C@H](C(=O)N[C@@H](CCC(=O)O)C(=O)N[C@H](C(=O)NCC(=O)N[C@@H](CO)C(=O)N[C@@H](CCC(=O)O)C(=O)N[C@H](C(=O)N1CCC[C@H]1C(N)=O)[C@@H](C)O)C(C)C)[C@@H](C)O)N(C)C(=O)[C@H](C)NC(=O)CN(C)C(=O)[C@H](Cc1ccccc1)NC(=O)[C@H](CO)NC(=O)[C@H](CO)NC(=O)[C@H](CO)NC(=O)[C@H](CO)NC(=O)[C@H](CCCNC(=N)N)NC(=O)[C@H](Cc1c[nH]cn1)NC(=O)[C@H](CC(C)C)NC(=O)[C@H](Cc1ccccc1)NC(=O)[C@H](CCC(=O)O)NC(=O)[C@H](C)NC(=O)[C@H](CC(C)C)NC(=O)[C@H](CCCNC(=N)N)NC(=O)[C@H](CCC(N)=O)NC(=O)[C@@H](NC(=O)[C@H](C)NC(=O)[C@@H]1CSSC[C@H](NC(=O)[C@H](CCCNC(=N)N)NC(=O)CC[C@H](NC(=O)CCCCCCCCCCCCCCCCCCC(=O)O)C(=O)O)C(=O)N[C@@H](CCC(=O)O)C(=O)N[C@@H]([C@@H](C)O)C(=O)N[C@@H](C)C(=O)N[C@@H]([C@@H](C)O)C(=O)N1)[C@@H](C)O [Compound 128, [19CD]-isoGlu-RC()ETATC()ATQRLAEFLHRSSSSF-Gly(Me)-A-Ile(Me)-LSSTEVGSETP-NH2] ({C20 diacid-γGlu}-RCETATCATQRLAEFLHRSSSSF[Sar]A[NMeI]LSSTEVGSETP-NH2; disulfide 2-7)		
